Format in all cases: physicochemical
Series [1] is described as follows: Competitive slurry of Pattern 1 and Pattern 2 in EtOH/water/MtBE (form stability, XRPD). How it is done:
In order to study form stability in EtOH/water/MtBE, competitive repining experiments were carried out at 50° C., 35° C., and 5° C. respectively, by adding 100 mg of anhydrous Pattern 1 solid and 100 mg of Pattern 2 solid.

Series [2] in a line: Solvent solubility screen of CHP lyophile. How it is done:
To a known mass of CHP lyophile (10 mg, from Section 5.2.2), 100 μL of the appropriate solvent was added and if solid remained the vial was gently heated to ˜40° C. to aid dissolution. Solvent addition continued until the material fully dissolved or 2 mL had been added (<5 mg/mL). The samples were uncapped and allowed to evaporate at ambient. The solvents used in the solubility screen can be found in Table 21.

The nature of series [3]: 8-week stability assessment at 40 °C/75% RH (XRPD, appearance, chiral HPLC). The conditions noted are these: for Chiral Purity: chiral HPLC. How it is done:
XRPD analysis was carried out on a PANalytical X'pert pro, scanning the samples between 3 and 35° 2θ. The material was gently ground to release any agglomerates and loaded onto a multi-well plate with Kapton or Mylar polymer film to support the sample. The multi-well plate was then placed into the diffractometer and analyzed using Cu K radiation (α1λ=1.54060 Å; α2=1.54443 Å; β=1.39225 Å; α1: α2 ratio=0.5) running in transmission mode (step size 0.0130° 2θ) using 40 kV/40 mA generator settings.
13. Chiral HPLC Column: Daicel IC (5.0 um, 250*4.6 mm) Column Temperature: 30° C. Injection Volume: 5 μL Flow Rate: 1.0 mL/min Mobile Phase A: 0.01% DEA in n-Hexane Mobile Phase B: EtOH:MeOH=2:8 (v/v) Diluent: Acetonitrile PDA Range: 220 nm Gradient program: […]

A short description of series [4]: 1 day stability assessment at 40 °C/75% RH (XRPD). The conditions noted are these: 2 hours at 40 °C/75% RH.

The record followed here is patent publication US12534496B2, “Polymorphic forms of Cyclo (-His-Pro) and methods of use to treat kidney disease” (NovMetaPharma Co., Ltd., priority 2018, dated 2026).

Entries after “also recorded” stand apart in the source; their conditions may differ.

As for `O=C1N[C@@H](Cc2c[nH]cn2)C(=O)N2CCC[C@@H]12` [Pattern 1 and Pattern 2], the XRPD tracking result in series [1] ((EtOH:H2O = 9:1):MTBE = 1:2, 5 °C, 0 h) is given as “Pattern 2”; in series [1] ((EtOH:H2O = 9:1):MTBE = 1:2, 5 °C, 2 h) it was “Pattern 2”; in series [1] ((EtOH:H2O = 9:1):MTBE = 1:2, 5 °C, 6 d), “Pattern 2”; in series [1] ((EtOH:H2O = 9:1):MTBE = 1:2, 5 °C, 7 d), “Pattern 2”; in series [1] ((EtOH:H2O = 9:1):MTBE = 1:2, 35 °C, 0 h) it was “Pattern 2”; in series [1] ((EtOH:H2O = 9:1):MTBE = 1:2, 35 °C, 2 h), “Pattern 2”. For the same compound, the XRPD tracking entry in series [1] ((EtOH:H2O = 9:1):MTBE = 1:2, 50 °C, 0 h) was “Pattern 2”; in series [1] ((EtOH:H2O = 9:1):MTBE = 1:2, 50 °C, 2 h), “Pattern 2”; in series [1] ((EtOH:H2O = 9:1):MTBE = 1:3, 5 °C, 0 h) it was “Pattern 2”; in series [1] ((EtOH:H2O = 9:1):MTBE = 1:3, 5 °C, 2 h), “Pattern 2”; in series [1] ((EtOH:H2O = 9:1):MTBE = 1:3, 5 °C, 6 d) it was “Pattern 2”; in series [1] ((EtOH:H2O = 9:1):MTBE = 1:3, 5 °C, 7 d), “Pattern 2”. Further, the XRPD tracking entry in series [1] ((EtOH:H2O = 9:1):MTBE = 1:3, 35 °C, 0 h) is on record as “Pattern 2”; in series [1] ((EtOH:H2O = 9:1):MTBE = 1:3, 35 °C, 2 h), “Pattern 2”; in series [1] ((EtOH:H2O = 9:1):MTBE = 1:3, 35 °C, 6 d), “Pattern 2”; in series [1] ((EtOH:H2O = 9:1):MTBE = 1:3, 35 °C, 7 d) it was “Pattern 2”; in series [1] ((EtOH:H2O = 9:1):MTBE = 1:3, 50 °C, 0 h), “Pattern 2”; in series [1] ((EtOH:H2O = 9:1):MTBE = 1:3, 50 °C, 2 h), “Pattern 2”. The XRPD tracking result is listed as “Pattern 2” in series [1] ((EtOH:H2O = 9:1):MTBE = 1:3, 50 °C, 6 d); “Pattern 2” in series [1] ((EtOH:H2O = 9:1):MTBE = 1:3, 50 °C, 7 d); “Pattern 2” in series [1] ((EtOH:H2O = 9:1):MTBE = 2.5:0.5, 5 °C, 0 h); “Pattern 2” in series [1] ((EtOH:H2O = 9:1):MTBE = 2.5:0.5, 5 °C, 2 h); “Pattern 2” in series [1] ((EtOH:H2O = 9:1):MTBE = 2.5:0.5, 5 °C, 6 d); “Pattern 2” in series [1] ((EtOH:H2O = 9:1):MTBE = 2.5:0.5, 5 °C, 7 d). For the same compound, the XRPD tracking result in series [1] ((EtOH:H2O = 9:1):MTBE = 2.5:0.5, 35 °C, 0 h) is listed as “Pattern 2”; in series [1] ((EtOH:H2O = 9:1):MTBE = 2.5:0.5, 35 °C, 2 h) it was “Pattern 2”; in series [1] ((EtOH:H2O = 9:1):MTBE = 2.5:0.5, 35 °C, 6 d), “Pattern 2”; in series [1] ((EtOH:H2O = 9:1):MTBE = 2.5:0.5, 35 °C, 7 d), “Pattern 2”; in series [1] ((EtOH:H2O = 9:1):MTBE = 2.5:0.5, 50 °C, 0 h) it was “Pattern 2”; in series [1] ((EtOH:H2O = 9:1):MTBE = 2.5:0.5, 50 °C, 2 h), “Pattern 2”. Besides, the XRPD tracking result is “Pattern 2” in series [1] ((EtOH:H2O = 9:1):MTBE = 2.5:0.5, 50 °C, 6 d); “Pattern 2” in series [1] ((EtOH:H2O = 9:1):MTBE = 3:0, 5 °C, 0 h); “Pattern 2” in series [1] ((EtOH:H2O = 9:1):MTBE = 3:0, 5 °C, 2 h); “Pattern 2” in series [1] ((EtOH:H2O = 9:1):MTBE = 3:0, 5 °C, 6 d); “Pattern 2” in series [1] ((EtOH:H2O = 9:1):MTBE = 3:0, 5 °C, 7 d); “Pattern 2” in series [1] ((EtOH:H2O = 9:1):MTBE = 3:0, 35 °C, 0 h). Moreover, the XRPD tracking result in series [1] ((EtOH:H2O = 9:1):MTBE = 3:0, 35 °C, 2 h) is “Pattern 2”; in series [1] ((EtOH:H2O = 9:1):MTBE = 3:0, 35 °C, 6 d), “Pattern 2”; in series [1] ((EtOH:H2O = 9:1):MTBE = 3:0, 35 °C, 7 d) it was “Pattern 2”; in series [1] ((EtOH:H2O = 9:1):MTBE = 3:0, 50 °C, 0 h), “Pattern 2”.

`O=C1N[C@@H](Cc2cnc[nH]2)C(=O)N2CCC[C@@H]12` [CHP Lyophile, Cyclo (-His-Pro)]: the “Approximate Solubility” value is not below 5000 µg/mL in series [2] (1-Butanol); not below 5000 µg/mL in series [2] (2-Butanol); not above 5000 µg/mL in series [2] (Dichloromethane); not above 5000 µg/mL in series [2] (Ethyl Acetate); not above 5000 µg/mL in series [2] (Ethyl Formate); not above 5000 µg/mL in series [2] (Heptane). The “Approximate Solubility” value in series [2] (Isopropyl Acetate), in series [2] (Methylethyl Ketone), in series [2] (Methylisobutyl Ketone), in series [2] (Nitromethane), in series [2] (THF) and in series [2] (acetone) was not above 5000 µg/mL in each case. Moreover, the “Approximate Solubility” value in series [2] (acetonitrile) and in series [2] (tert-Butylmethyl Ether) was not above 5000 µg/mL throughout.

Regarding `O=C1N[C@@H](Cc2cnc[nH]2)C(=O)N2CCC[C@@H]12` [Pure Pattern 1, Cyclo (-His-Pro)], the Appearance entry in series [3] (2-week), in series [3] (4-week), in series [3] (8-week) and in series [3] (Initial) was “Faint beige” each time. The “XRPD form after storage” value is “remained as pattern 2” in series [3] (4 weeks); “remained as pattern 2” in series [3] (8 weeks); “converted to pattern 2; also recorded: converting to the hydrated pattern 2” in series [3] (two weeks (14 days)); “convert to pattern 2” in series [4] (listed as Pure pattern 1); “converts to pattern 2” in series [4] (listed as pure pattern 1). The “Chiral Purity” value in series [3] (2-week) was 99.9%; in series [3] (4-week), 99.9%; in series [3] (8-week), 99.9%; in series [3] (Initial) it was more than 99.9%.
